Measured values published in PubChem BioAssay (NCI).
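Method: 48-hour compound exposure of cells in 96-well plates, five concentrations, linear interpolation of endpoints. TGI marks complete inhibition of growth.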

Tests used:
Assay in all cases: DTP human tumour cell line panel, 48 h
[1] = tested on: A549 NSCLC
[2] = tested on: HCC-2998 colon
[3] = tested on: M14 melanoma
[4] = tested on: OVCAR-8 ovarian
[5] = tested on: LOX IMVI melanoma
[6] = tested on: SNB-75 CNS
[7] = tested on: MDA-N
[8] = tested on: KM12 colon
[9] = tested on: SN12C renal
[10] = tested on: NCI/ADR-RES ovarian
[11] = tested on: IGROV1 ovarian
[12] = tested on: RXF 393 renal
[13] = tested on: MDA-MB-435
[14] = tested on: UACC-257 melanoma
[15] = tested on: PC-3 prostate
[16] = tested on: T-47D breast
[17] = tested on: ACHN renal
[18] = tested on: SK-MEL-5 melanoma

CC1(c2ccc(Cl)s2)CC(c2ccc(Cl)s2)=C(C#N)C(=C(C#N)C#N)N1 (stereo unspecified)
TGI [1]: 48.8 µM
TGI [2]: 34.5 µM
TGI [3]: 36.4 µM
TGI [4]: 50.4 µM
TGI [5]: 44.3 µM
TGI [6]: 38.6 µM
TGI [7]: 49.5 µM
TGI [8]: 36 µM
TGI [9]: 45.7 µM
TGI [10]: 38.8 µM
TGI [11]: 35.3 µM
TGI [12]: 33.7 µM
TGI [13]: 35.1 µM
TGI [14]: 43.4 µM
TGI [15]: 33.5 µM
TGI [16]: 46.7 µM
TGI [17]: 31.4 µM
TGI [18]: 29.5 µM

CCCCCCCCCCCCCCCCCCNc1nc(=O)n(C2CC(O)C(COP(=O)(O)OCC3OC(n4ccc(N)nc4=O)C(O)C3O)O2)cc1F (stereo unspecified)
TGI [1]: > 100 µM
TGI [2]: > 100 µM
TGI [3]: > 100 µM
TGI [4]: 23 µM
TGI [5]: 22.3 µM
TGI [6]: > 100 µM
TGI [7]: > 100 µM
TGI [8]: > 100 µM
TGI [9]: > 100 µM
TGI [10]: > 100 µM
TGI [11]: > 100 µM
TGI [12]: > 100 µM
TGI [13]: > 100 µM
TGI [14]: > 100 µM
TGI [15]: > 100 µM
TGI [16]: > 100 µM
TGI [17]: > 100 µM
TGI [18]: > 100 µM

ON[C@H]1C[C@@H](n2cnc3c(NC4CC4)ncnc32)[C@H](O)[C@@H]1O
TGI [1]: > 100 µM
TGI [2]: > 100 µM
TGI [3]: > 100 µM
TGI [4]: > 100 µM
TGI [5]: > 100 µM
TGI [6]: > 100 µM
TGI [7]: > 100 µM
TGI [8]: > 100 µM
TGI [9]: > 100 µM
TGI [10]: > 100 µM
TGI [11]: > 100 µM
TGI [12]: > 100 µM
TGI [13]: > 100 µM
TGI [14]: > 100 µM
TGI [15]: > 100 µM
TGI [16]: > 100 µM
TGI [17]: > 100 µM
TGI [18]: > 100 µM

ONC1=Nc2ccccc2C(=S)N2CSCC12 (stereo unspecified)
TGI [1]: > 100 µM
TGI [2]: > 100 µM
TGI [3]: > 100 µM
TGI [4]: > 100 µM
TGI [5]: > 100 µM
TGI [6]: > 100 µM
TGI [7]: 45.1 µM
TGI [8]: > 100 µM
TGI [9]: > 100 µM
TGI [10]: > 100 µM
TGI [11]: > 100 µM
TGI [12]: > 100 µM
TGI [13]: 48.1 µM
TGI [14]: > 100 µM
TGI [15]: > 100 µM
TGI [16]: > 100 µM
TGI [17]: > 100 µM
TGI [18]: 99.2 µM

COC(=O)C(COC(=O)/C=C/c1ccc(OC(C)=O)c(OC(C)=O)c1)NC(=O)/C=C/c1ccc(OC(C)=O)c(OC(C)=O)c1 (stereo unspecified)
TGI [1]: > 100 µM
TGI [2]: 47.3 µM
TGI [3]: 39.5 µM
TGI [4]: > 100 µM
TGI [5]: 53.8 µM
TGI [6]: > 100 µM
TGI [7]: 71.7 µM
TGI [8]: 38.8 µM
TGI [9]: 45.4 µM
TGI [10]: > 100 µM
TGI [11]: > 100 µM
TGI [12]: > 100 µM
TGI [13]: > 100 µM
TGI [14]: > 100 µM
TGI [15]: 32.6 µM
TGI [16]: 38.8 µM
TGI [17]: 80.8 µM
TGI [18]: 29.7 µM

O=C1c2ccccc2C2C1C(c1ccccc1)C1(Cc3ccccc3C1=O)C2c1ccccc1 (stereo unspecified)
TGI [1]: > 100 µM
TGI [2]: > 100 µM
TGI [3]: > 100 µM
TGI [4]: > 100 µM
TGI [5]: > 100 µM
TGI [6]: > 100 µM
TGI [7]: > 100 µM
TGI [8]: > 100 µM
TGI [9]: > 100 µM
TGI [10]: > 100 µM
TGI [11]: > 100 µM
TGI [12]: > 100 µM
TGI [13]: > 100 µM
TGI [14]: > 100 µM
TGI [15]: > 100 µM
TGI [16]: > 100 µM
TGI [17]: > 100 µM
TGI [18]: > 100 µM

O=c1[nH]nc(-c2ccccc2)n1/N=C/c1ccccc1Cl
TGI [1]: > 100 µM
TGI [2]: > 100 µM
TGI [3]: > 100 µM
TGI [4]: > 100 µM
TGI [5]: > 100 µM
TGI [6]: > 100 µM
TGI [7]: > 100 µM
TGI [8]: 32.6 µM
TGI [9]: > 100 µM
TGI [10]: 67.9 µM
TGI [11]: > 100 µM
TGI [12]: 67.4 µM
TGI [13]: 60.2 µM
TGI [14]: > 100 µM
TGI [15]: 57.6 µM
TGI [16]: > 100 µM
TGI [17]: > 100 µM
TGI [18]: 36.1 µM

N=CN=CC(=S)O[C@@H]1C(=O)N2CCC[C@@]23CCCC[C@@H]13
TGI [1]: > 12.5 µM
TGI [2]: > 12.5 µM
TGI [3]: > 12.5 µM
TGI [4]: > 12.5 µM
TGI [5]: > 12.5 µM
TGI [6]: > 12.5 µM
TGI [7]: > 12.5 µM
TGI [8]: > 12.5 µM
TGI [9]: > 12.5 µM
TGI [10]: > 12.5 µM
TGI [11]: > 12.5 µM
TGI [12]: > 12.5 µM
TGI [13]: > 12.5 µM
TGI [14]: > 12.5 µM
TGI [15]: > 12.5 µM
TGI [16]: > 12.5 µM
TGI [17]: > 12.5 µM
TGI [18]: > 12.5 µM

COc1cccc(Nc2nc(N)nc(N)c2N)c1
TGI [1]: > 100 µM
TGI [2]: > 100 µM
TGI [3]: > 100 µM
TGI [4]: > 100 µM
TGI [5]: 40.2 µM
TGI [6]: > 100 µM
TGI [7]: 36.8 µM
TGI [8]: > 100 µM
TGI [9]: 37.8 µM
TGI [10]: > 100 µM
TGI [11]: > 100 µM
TGI [12]: > 100 µM
TGI [13]: > 100 µM
TGI [14]: > 100 µM
TGI [15]: > 100 µM
TGI [16]: > 100 µM
TGI [17]: > 100 µM
TGI [18]: 88.2 µM

CSc1nc2c(c(N3CCOCC3)n1)C(O)n1c(nc3ccccc31)S2 (stereo unspecified)
TGI [1]: > 100 µM
TGI [2]: > 100 µM
TGI [3]: > 100 µM
TGI [4]: > 100 µM
TGI [5]: > 100 µM
TGI [6]: 81.9 µM
TGI [7]: > 100 µM
TGI [8]: > 100 µM
TGI [9]: > 100 µM
TGI [10]: > 100 µM
TGI [11]: > 100 µM
TGI [12]: > 100 µM
TGI [13]: > 100 µM
TGI [14]: > 100 µM
TGI [15]: > 100 µM
TGI [16]: > 100 µM
TGI [17]: > 100 µM
TGI [18]: 8.41 µM

O=C(N/N=C/c1ccc([N+](=O)[O-])cc1)Nc1ccc(Br)cc1
TGI [1]: > 100 µM
TGI [2]: 90.9 µM
TGI [3]: > 100 µM
TGI [4]: > 100 µM
TGI [5]: > 100 µM
TGI [6]: > 100 µM
TGI [7]: > 100 µM
TGI [8]: > 100 µM
TGI [9]: > 100 µM
TGI [10]: > 100 µM
TGI [11]: > 100 µM
TGI [12]: > 100 µM
TGI [13]: > 100 µM
TGI [14]: > 100 µM
TGI [15]: > 100 µM
TGI [16]: > 100 µM
TGI [17]: > 100 µM
TGI [18]: > 100 µM

Cc1ccnc2[nH]c(-c3ccc(F)cc3)cc(=O)c12
TGI [1]: > 100 µM
TGI [2]: > 100 µM
TGI [3]: > 46.4 µM
TGI [4]: > 100 µM
TGI [5]: > 100 µM
TGI [6]: > 100 µM
TGI [7]: > 53.9 µM
TGI [8]: > 100 µM
TGI [9]: > 100 µM
TGI [10]: > 100 µM
TGI [11]: > 100 µM
TGI [12]: > 100 µM
TGI [13]: > 44.8 µM
TGI [14]: > 100 µM
TGI [15]: > 100 µM
TGI [16]: > 100 µM
TGI [17]: > 100 µM
TGI [18]: > 100 µM

CCS(=O)(=O)CCn1c(=O)c2c(ncn2C)n(C)c1=O
TGI [1]: > 100 µM
TGI [2]: > 100 µM
TGI [3]: > 100 µM
TGI [4]: > 100 µM
TGI [5]: > 100 µM
TGI [6]: > 100 µM
TGI [7]: > 100 µM
TGI [8]: > 100 µM
TGI [9]: > 100 µM
TGI [10]: > 100 µM
TGI [11]: > 100 µM
TGI [12]: > 100 µM
TGI [13]: > 100 µM
TGI [14]: > 100 µM
TGI [15]: > 100 µM
TGI [16]: > 100 µM
TGI [17]: > 100 µM
TGI [18]: > 100 µM

COc1cc(/C=C\c2nnc(/C=C\c3ccc(O)c(OC)c3)s2)ccc1O
TGI [1]: > 54.7 µM
TGI [2]: 12.9 µM
TGI [3]: 9.58 µM
TGI [4]: > 42.9 µM
TGI [5]: 22.4 µM
TGI [6]: 8.83 µM
TGI [7]: 16.4 µM
TGI [8]: 15.4 µM
TGI [9]: > 92.8 µM
TGI [10]: 14.2 µM
TGI [11]: > 36.6 µM
TGI [12]: 4.75 µM
TGI [13]: 0.549 µM
TGI [14]: > 30.7 µM
TGI [15]: > 64.3 µM
TGI [16]: 7.38 µM
TGI [17]: 22.3 µM
TGI [18]: 3.42 µM

CSc1nc(C)c(CCOC(C)=O)c(Cl)n1
TGI [1]: > 100 µM
TGI [2]: > 100 µM
TGI [3]: > 100 µM
TGI [4]: > 100 µM
TGI [5]: > 100 µM
TGI [6]: > 100 µM
TGI [7]: > 100 µM
TGI [8]: > 100 µM
TGI [9]: > 100 µM
TGI [10]: > 100 µM
TGI [11]: > 100 µM
TGI [12]: > 100 µM
TGI [13]: > 100 µM
TGI [14]: > 100 µM
TGI [15]: > 100 µM
TGI [16]: > 100 µM
TGI [17]: > 100 µM
TGI [18]: > 100 µM

O/N=C1/CC2(N3CCOCC3)C3CC/C(=N\O)C2CC1(Cc1ccccc1)C3 (stereo unspecified)
TGI [1]: > 100 µM
TGI [2]: > 100 µM
TGI [3]: > 100 µM
TGI [4]: > 100 µM
TGI [5]: > 100 µM
TGI [6]: 96 µM
TGI [7]: > 100 µM
TGI [8]: > 100 µM
TGI [9]: > 100 µM
TGI [10]: > 100 µM
TGI [11]: > 100 µM
TGI [12]: > 100 µM
TGI [13]: > 100 µM
TGI [14]: > 100 µM
TGI [15]: > 100 µM
TGI [16]: > 100 µM
TGI [17]: > 100 µM
TGI [18]: > 100 µM

O=C1OC(C2(O)OC(=O)c3ccccc32)c2ccccc21 (stereo unspecified)
TGI [1]: > 100 µM
TGI [2]: > 100 µM
TGI [3]: > 100 µM
TGI [4]: > 100 µM
TGI [5]: > 100 µM
TGI [6]: > 100 µM
TGI [7]: > 100 µM
TGI [8]: > 100 µM
TGI [9]: > 100 µM
TGI [10]: > 100 µM
TGI [11]: > 100 µM
TGI [12]: > 100 µM
TGI [13]: > 100 µM
TGI [14]: > 100 µM
TGI [15]: > 100 µM
TGI [16]: > 100 µM
TGI [17]: > 100 µM
TGI [18]: > 100 µM
